Converted amounts (≈) assume the structure as drawn.
What was measured:
Human betaherpesvirus 5 = experiment: Compound was evaluated for the antiviral activity against HCMV; assay type: functional, organism-based
[1] = Compound was evaluated for its cytotoxicity.; assay type: functional
Human alphaherpesvirus 1 = experiment: Compound was evaluated for the antiviral activity against HSV-1; assay type: functional, organism-based
Human alphaherpesvirus 2 = experiment: Compound was evaluated for the antiviral activity against HSV-2; assay type: functional, organism-based
[2] = test system: Human immunodeficiency virus 1; experiment: Compound was evaluated for the antiviral activity against HIV-1; assay type: functional, organism-based

With `Nc1nc2c(ncn2COC(CO)CO)c(=O)[nH]1` [GANCICLOVIR] the EC50 (Human betaherpesvirus 5) was 0.74 µg/mL (≈ 2.9 µM) and the IC50 [1] was > 10 µg/mL.

With `Nc1nc2c(ncn2COCCO)c(=O)[nH]1` [ACYCLOVIR] the EC50 (Human alphaherpesvirus 1) was 1.05 µg/mL (≈ 4.68 µM), the EC50 (Human alphaherpesvirus 2) was 5.12 µg/mL (≈ 22.7 µM) and the IC50 [1] was 250 µg/mL (≈ 1110 µM).

In the case of `C=C1[C@H](CO)OC[C@@H]1n1ccc(N)nc1=O`, the EC50 (Human betaherpesvirus 5) is reported as > 100 µg/mL, the EC50 (Human alphaherpesvirus 1) is reported as > 100 µg/mL and the EC50 [2] is reported as > 100 µg/mL. The EC50 (Human alphaherpesvirus 2) was > 100 µg/mL and the IC50 [1] was > 100 µg/mL.

With `C=C1[C@H](CO)OC[C@@H]1n1cnc2c(N)ncnc21` the EC50 (Human betaherpesvirus 5) was 33.3 µg/mL (≈ 135 µM), the EC50 (Human alphaherpesvirus 1) was > 100 µg/mL and the EC50 [2] was > 100 µg/mL. For the same molecule, the EC50 (Human alphaherpesvirus 2) was > 100 µg/mL and the IC50 [1] was > 100 µg/mL.

In the case of `C=C1[C@H](CO)OC[C@@H]1n1cnc2c(O)nc(N)nc21`, the EC50 (Human betaherpesvirus 5) is reported as > 100 µg/mL, the EC50 (Human alphaherpesvirus 1) is reported as > 100 µg/mL and the EC50 [2] is reported as > 100 µg/mL. For the same molecule, the EC50 (Human alphaherpesvirus 2) was > 100 µg/mL and the IC50 [1] was > 100 µg/mL.

In the case of `C=C1[C@H](CO)OC[C@@H]1n1cnc2c(O)ncnc21`, the EC50 (Human betaherpesvirus 5) is reported as > 100 µg/mL, the EC50 (Human alphaherpesvirus 1) is reported as 35 µg/mL (≈ 141 µM) and the EC50 [2] is reported as > 100 µg/mL. For the same molecule, the EC50 (Human alphaherpesvirus 2) was > 100 µg/mL and the IC50 [1] was > 100 µg/mL.

With `Cc1cn([C@H]2C[C@H](N=[N+]=[N-])[C@@H](CO)O2)c(=O)[nH]c1=O` [ZIDOVUDINE] the EC50 [2] was 0.00132 µg/mL (≈ 0.00494 µM) and the IC50 [1] was 1 µg/mL (≈ 3.74 µM).

In the case of `C=C1[C@H](CO)OC[C@@H]1n1ccc(=O)[nH]c1=O`, the EC50 (Human betaherpesvirus 5) is reported as 10.6 µg/mL (≈ 47.3 µM), the EC50 (Human alphaherpesvirus 1) is reported as 100 µg/mL (≈ 446 µM) and the EC50 [2] is reported as 100 µg/mL (≈ 446 µM). The EC50 (Human alphaherpesvirus 2) was 100 µg/mL (≈ 446 µM) and the IC50 [1] was 100 µg/mL (≈ 446 µM).
